Measured values reported in paper PMC10762035, “Molecular basis of human trace amine-associated receptor 1 activation” (Nature Communications, 2024).
Where “and” joins values, the source holds several entries; their conditions need not be identical. Equal entries are not always repeated. Structures can show the parent of a compound that is named as a salt.

molecular target: T1, hTA1 (Homo sapiens, UniProt Q96RJ0); experiment: Screen of 89 aminergic compounds at 10 µM, cAMP accumulation in HEK293T cells; format: cell-based; settings: not given;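 also: HEK293T cells co-transfected with hTA1 and GloSensor cAMP reporter, cAMP accumulation detected by luminescence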
T1 construct: expressed in transfected cells; host or cells: HEK293T
T1 sequence (Q96RJ0 1-339): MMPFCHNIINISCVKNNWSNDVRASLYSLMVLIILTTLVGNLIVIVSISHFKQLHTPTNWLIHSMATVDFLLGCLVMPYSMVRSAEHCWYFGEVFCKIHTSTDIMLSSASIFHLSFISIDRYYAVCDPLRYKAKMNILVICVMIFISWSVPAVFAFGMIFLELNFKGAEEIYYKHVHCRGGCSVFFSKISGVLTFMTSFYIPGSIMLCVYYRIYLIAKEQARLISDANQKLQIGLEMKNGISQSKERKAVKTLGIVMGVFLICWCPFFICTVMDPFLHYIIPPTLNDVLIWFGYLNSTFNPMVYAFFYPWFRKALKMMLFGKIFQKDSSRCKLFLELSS

SMILES	Luminescence for Screening Data
CN1CCc2ccccc2Cc2[nH]c3ccccc3c2CC1 [LE300]	5.7 and 3.6 and 5.5 and 5

same assay, conditions: 10 µM of compound; HEK293T; threshold log2-fold change of 2

SMILES	increase of signal over DMSO-treated controls (hTA1 activation) [fold]
NCCc1c[nH]cn1 [histamine]	≥ 4

same assay, conditions: quadruplicate values; screen at 10 µM

SMILES	Luminescence for Screening Data
CN1C[C@H](C(=O)N[C@]2(C)O[C@@]3(O)[C@@H]4CCCN4C(=O)[C@H](Cc4ccccc4)N3C2=O)C[C@@H]2c3cccc4[nH]cc(c34)C[C@H]21 [Dihydroergotamine mesylate]	25.4 and 24.7 and 32.7 and 26.9
Cl.N#Cc1ccc(N2CCN(C(=O)COc3ccc4[nH]cc(CCN)c4c3)CC2)cc1 [Donitriptan hydrochloride]	9.4 and 7.6 and 8.3 and 7.4
N#Cc1c[nH]c2c(C(=O)N3CCN(CCc4ccc(F)cc4)CC3)cccc12 [EMD281014]	4.2 and 3.9 and 4.4
Cc1[nH]c2ccc(Cl)cc2c1C1=CCNCC1 [EMD386088]	14.2 and 14.9 and 14.6 and 13.7
CCN(CC)C(=O)/C(C#N)=C/c1cc(O)c(O)c([N+](=O)[O-])c1 [Entacapone]	5.5 and 5.2 and 6.2 and 5.6
Oc1cc(O)c2c(c1)O[C@H](c1cc(O)c(O)c(O)c1)[C@H](O)C2 [Epigallocatechin]	5.2 and 5.7 and 5.9 and 6.3
O=C1Nc2ccc(Cl)cc2[C@@](C#CC2CC2)(C(F)(F)F)O1 [Evafirenz]	3.7 and 4.1 and 4.4 and 4.6
CNc1ccc2c(CCN)cc(=O)oc2c1 [FFN206]	12.7 and 12.5 and 12.8
O=S1(=O)c2cccc3cccc(c23)N1CCCN1CCN(c2ccc(F)cc2)CC1 [Fananserin]	4.9 and 5 and 4.3 and 5.2
CNCCC(Oc1ccc(C(F)(F)F)cc1)c1ccccc1 (stereo not shown) [Fluoxetine]	8.5 and 7.5 and 8.1 and 6.5
Fc1ccc(C(OCCN2CCN(CCCc3ccccc3)CC2)c2ccc(F)cc2)cc1 [GBR12909]	4.8 and 5.2 and 6.6 and 6.2
Cl.O=c1[nH]oc2c1CCNC2 [Gaboxadol HCl]	7 and 8.2 and 5.3 and 6.3
O=C(CCCN1CCC(O)(c2ccc(Cl)cc2)CC1)c1ccc(F)cc1 [Haloperidol]	7.4 and 8.8 and 6.8 and 6.9
O=C1c2ccccc2S(=O)(=O)N1CCCCN1CCN(c2ncccn2)CC1 [Ipsapirone]	6.8 and 5.5 and 5.4
CNC1(c2ccccc2Cl)CCCCC1=O (stereo not shown) [Ketamine]	4.7 and 6.1 and 5.5 and 5.6
O=C(c1ccc(F)cc1)C1CCN(CCn2c(=O)[nH]c3ccccc3c2=O)CC1 [Ketanserin]	6.8 and 5.5 and 5.4 and 3.9
CS(=O)(=O)Nc1ccc(Cc2noc(-c3ccc4[nH]cc(CCN)c4c3)n2)cc1 [L694 247]	6.5 and 8.1 and 7.2
O=C(CCCCCN1CCN(c2ccccc2-c2ccccc2)CC1)NC1CCCc2ccccc21 (stereo not shown) [LP12]	5.4 and 4.7 and 7.1 and 5
COc1ccc(CC2NCCc3c2[nH]c2ccc(C)cc32)c(Cl)c1OC.Cl (stereo not shown) [LY266097 hydrochloride]	5.6 and 6.8 and 5.3 and 5.9
CN1CCC(C(=O)c2cccc(NC(=O)c3c(F)cc(F)cc3F)n2)CC1 [Lasmitidan]	5.8 and 6.4 and 6.2 and 4.1
CN1[C@@H](CC(=O)c2ccccc2)CCC[C@H]1C[C@H](O)c1ccccc1.CN1[C@@H](CC(=O)c2ccccc2)CCC[C@H]1C[C@H](O)c1ccccc1.O=S(=O)(O)O [Lobeline sulfate]	7.2 and 5 and 5.7 and 5.4

SMILES	Luminescence for Screening Data
CN1CCN(C2=Nc3ccccc3Oc3ccc(Cl)cc32)CC1.O=C(O)CCC(=O)O [Loxapine succinate salt]	5.2 and 3.9 and 5.6
Fc1ccc2c(CCNCc3cccc(OCC(F)(F)C(F)F)c3)c[nH]c2c1 [LuAE58054]	7.5 and 10.3 and 7.4 and 7.7
COc1cccc([C@H](O)C2CCN(CCc3ccc(F)cc3)CC2)c1OC [MDL 100907]	5.4 and 6.7 and 5.2 and 5.8
CSc1ccc2c(c1)C(N1CCN(C)CC1)Cc1ccccc1S2 (stereo not shown) [Methiothepin]	2.6 and 3.3 and 3 and 3.4
CN1C[C@H](C(=O)N[C@]2(C)O[C@@]3(O)[C@@H]4CCCN4C(=O)[C@H](Cc4ccccc4)N3C2=O)C=C2c3cccc4c3c(cn4C)C[C@H]21.O=C(O)/C=C\C(=O)O [Methylergotamine maleate]	42.5 and 31.9 and 34.9 and 38.8
NC(=O)C[S+]([O-])C(c1ccccc1)c1ccccc1 (stereo not shown) [Modafanil]	6.8 and 5.8 and 5.7 and 8.1
NC(=O)c1ccc(F)c2c1C[C@@H](N(C1CCC1)C1CCC1)CO2 [NAD 299]	6.3 and 5.6 and 4.8 and 5.9
COc1ccccc1N1CCN(CCCCN2C(=O)c3ccccc3C2=O)CC1 [NAN190]	6.8 and 8.1 and 6.1 and 6.2
O=[N+]([O-])c1ccc(CSc2ncnc3c2ncn3[C@@H]2O[C@H](CO)[C@@H](O)[C@H]2O)cc1 [NBMPR]	6.9 and 7.3 and 6.6
O=C1CC[C@@]2(O)[C@H]3Cc4ccc(O)c5c4[C@@]2(CCN3CC2CC2)[C@H]1O5 [Naltrexone hydrochloride]	7.8 and 5.6 and 5.9 and 6.7
CNc1cc(OC)c(C(=O)NC2CCN(Cc3ccccc3)C2C)cc1Cl (stereo not shown) [Nemonapride]	5.7 and 7.5 and 7.3 and 6.6
C#CCN(C)Cc1ccccc1 [Pargyline hydrochloride]	8.3 and 10.1 and 8.8 and 8.5
CN1CCC(=C2c3ccccc3Sc3ccccc32)CC1 [Pimethixine]	3.8 and 3.7
COc1cc2nc(N3CCN(C(=O)c4ccco4)CC3)nc(N)c2cc1OC [Prazosin hydrochloride]	6.6 and 6.4 and 6.7 and 7.2
O=c1c(O)c(-c2ccc(O)c(O)c2)oc2cc(O)cc(O)c12 [Quercetin]	31.9 and 24.7 and 28.4 and 23.7
C=C[C@H]1C[N@@]2CC[C@H]1C[C@H]2[C@H](O)c1ccnc2ccc(OC)cc12 [Quinine sulfate]	7.1 and 8 and 6.1 and 7.2
COc1cc(N)c(Cl)cc1C(=O)CCC1CCN(CCNS(C)(=O)=O)CC1.Cl [RS 67506 hydrochloride]	5.6 and 9 and 4.8 and 5.5
CC(C)c1cc(-c2ccc(F)c3ccccc23)nc(N)n1 [RS 127445]	10.7 and 5.8 and 6.4 and 7
CCN1CCC[C@H]1CNC(=O)c1c(O)c(Cl)cc(Cl)c1OC [Raclopride]	4.1 and 6.9 and 6.4 and 5
COC(=O)[C@H]1[C@H]2C[C@H]3c4[nH]c5ccccc5c4CCN3C[C@H]2CC[C@@H]1O [Rauwolscine hydrochloride]	6.9 and 7.7 and 6.8
COC(=O)[C@H]1[C@H]2C[C@@H]3c4[nH]c5cc(OC)ccc5c4CCN3C[C@H]2C[C@@H](OC(=O)c2cc(OC)c(OC)c(OC)c2)[C@@H]1OC [Reserpine]	10.3 and 8.2 and 7.3 and 7.1

SMILES	Luminescence for Screening Data
Cc1nc2n(c(=O)c1CCN1CCC(c3noc4cc(F)ccc34)CC1)CCCC2 [Risperidone]	6.7 and 6 and 6.8 and 7
Cc1nc2sccn2c(=O)c1CCN1CCC(=C(c2ccc(F)cc2)c2ccc(F)cc2)CC1 [Ritanserin]	5.6 and 5.8 and 6.1 and 6.3
CN1CCN(c2cccc3c(S(=O)(=O)c4ccccc4)c[nH]c23)CC1 [Ro4368554]	5.1 and 6 and 4.2 and 4.8
CCCCN1CCC(COC(=O)c2cc(Cl)c(N)c3c2OCCO3)CC1 [SB204070]	5.4 and 6 and 6.4
Cn1ccc2cc3c(cc21)CCN3C(=O)Nc1cccnc1 [SB206553]	5.8 and 7.8 and 6.3
CC1CCN(CC[C@H]2CCCN2S(=O)(=O)c2cccc(O)c2)CC1 [SB269970]	7.2 and 7 and 6.5
COc1ccc(S(=O)(=O)Nc2cc(Cl)cc(Cl)c2OC)cc1N1CCNCC1 [SB399885]	6.4 and 5.8 and 6.1 and 6.2
O=S(=O)(c1ccccc1)c1cnc2c(N3CCNCC3)cccc2c1 [SB742457]	9 and 8.4 and 8.8 and 9.7
CN1CCC(c2cn(C)c3ccc(OS(=O)(=O)c4c(F)cccc4F)cc23)CC1.O=C(O)C(=O)O [SGS 518 oxalate]	6.7 and 6.8 and 8
NCCc1c[nH]c2ccc(O)cc12 [Serotonin Hydrochloride]	29.3
O=C1NCCN1CCN1CCC(c2cn(-c3ccc(F)cc3)c3ccc(Cl)cc23)CC1 [Sertindole]	7.6 and 9 and 6.3
O=C(CCCN1CCC2(CC1)C(=O)NCN2c1ccccc1)c1ccc(F)cc1 [Spiperone]	6.2 and 8.3 and 7.1 and 6.7
CNS(=O)(=O)Cc1ccc2[nH]cc(CCN(C)C)c2c1 [Sumatriptan]	6.2 and 7.3
COc1cc2c(cc1OC)C1CC(=O)C(CC(C)C)CN1CC2 (stereo not shown) [Tetrabenazine]	6.8 and 8.5 and 6.4 and 8.8
C/C=C(/C)C(=O)O[C@H]1C(C)=C2[C@H]([C@@H]1OC(=O)CCCCCCC)[C@@](C)(OC(C)=O)C[C@H](OC(=O)CCC)[C@@]1(O)[C@H]2OC(=O)[C@@]1(C)O [Thapsigargin]	6.1 and 7.3 and 5.8 and 7.7
COc1ccc(C(CN(C)C)C2(O)CCCCC2)cc1 (stereo not shown) [Venlafaxine]	6.7 and 7 and 6 and 6.5
O=C1Cc2cc(CCN3CCN(c4nsc5ccccc45)CC3)c(Cl)cc2N1 [Ziprasidone]	5.8 and 4.8 and 5.4
NCCc1c[nH]cn1 [histamine]	13.5 and 15.3 and 16.1 and 15.1
O=c1[nH]c2ccccc2n1C1CCN(CCCC(c2ccc(F)cc2)c2ccc(F)cc2)CC1 [pimozide]	4.4 and 4.3 and 5
CN(C)CCOC1=Cc2ccccc2Sc2ccc(Cl)cc21 [zotepine]	5.4 and 6.9 and 6.1 and 5.8
